Laboratory results from US12427168B2, “Extracellular vesicle and use thereof in skin products” (EV CELL BIOTECH (GUANGZHOU) CO., LTD., priority 2020, dated 2025).

Columns and labels:
[1] = system: mice; test: Hair regrowth with IEVs alone or combined with anti-aging substances; type: in vivo; details: combined with IEVs, FIG. 12
Method: After systemic injection of PKH26-IEV in C57 mice, rapamycin (5 mg/kg), metformin (100 mg/kg), dadatinib (5 mg/kg) and resveratrol (10 mg/kg) were intraperitoneally injected for 7 days, respectively.

[2] = system: skin mesenchymal stem cells; test: Uptake of IEVs by skin mesenchymal stem cells, cell smear; type: cell-based; details: FIG. 13D
[3] = system: active-β-catenin; test: Active-β-catenin intensity in the skin, immunofluorescence; type: in vivo; details: with IEVs, FIG. 13E
[4] = system: mice; test: Wound healing of 1 cm×1 cm full-thickness wound; type: in vivo; details: for effect on promotion of wound healing by IEVs: with IEVs, FIG. 15B
Source text: A 1 cm×1 cm full-thickness wound was made in mice, and the effect of systemic injections of MSCs and IEVs on wound healing was examined.

[5] = system: Wnt signaling pathways; test: Skin excretion of IEVs under Wnt agonist or inhibitor (Western Blot, immunofluorescence); type: in vivo; details: Licl 10 mg/kg or XAV939 1 mg/kg intraperitoneally for 3 days, FIGS. 13A-B

With `Oc1ccc(C=Cc2cc(O)cc(O)c2)cc1` [resveratrol] the “effect of the combination on hair regrowth promotion by IEVs” value [1] was “promoted the promotion effects of hair regrowth by IEVs”.
For `CN(C)C(=N)N=C(N)N` [metformin], the “effect of the combination on hair regrowth promotion by IEVs” value [1] was “promoted the promotion effects of hair regrowth by IEVs”.
In the case of `Oc1nc(-c2ccc(C(F)(F)F)cc2)nc2c1CSCC2` [XAV939], the “effect on uptake of IEVs by skin mesenchymal stem cells” value [2] is reported as “affected”, the “effect on IEV-stimulated activation of Wnt signaling pathways in the skin” value [3] is reported as “attenuated this activation process” and the “effect on promotion of wound healing by IEVs” value [4] is reported as “significantly attenuated the promotion of wound healing by IEVs”.
With `[Cl-].[Li+]` [Licl] the “effect on skin excretion of IEVs” value [5] was “significant increase in skin excretion of IEVs”, the “effect on uptake of IEVs by skin mesenchymal stem cells” value [2] was “affected” and the “IEVs accumulation in the wound site” value ([4]; immunofluorescence, FIG. 15C) was “significantly increased IEVs accumulation in the wound site”. The “effect on promotion of wound healing by IEVs” value [4] was “accelerated the promotion of wound healing by IEVs”.
